Assay results published in USRE42462E1, “Carboxylic acid derivatives, their preparation and use” (Abbott GmbH & Co. KG, priority 1995, dated 2011).

Key:
[1] = target: T1, ETB receptors (Cavia porcellus, UniProt H0VTF3); test: ETB receptor binding assay ([125I]-RZ3, guinea pig cerebellar membranes); conditions: 25 pM [125I]-RZ3, 25° C., 30 min
T1 construct: Guinea pig cerebella were homogenized in a Potter-Elvejhem homogenizer; from tissue; host or cells: guinea pig cerebellum membranes
T1 sequence (H0VTF3 27-415): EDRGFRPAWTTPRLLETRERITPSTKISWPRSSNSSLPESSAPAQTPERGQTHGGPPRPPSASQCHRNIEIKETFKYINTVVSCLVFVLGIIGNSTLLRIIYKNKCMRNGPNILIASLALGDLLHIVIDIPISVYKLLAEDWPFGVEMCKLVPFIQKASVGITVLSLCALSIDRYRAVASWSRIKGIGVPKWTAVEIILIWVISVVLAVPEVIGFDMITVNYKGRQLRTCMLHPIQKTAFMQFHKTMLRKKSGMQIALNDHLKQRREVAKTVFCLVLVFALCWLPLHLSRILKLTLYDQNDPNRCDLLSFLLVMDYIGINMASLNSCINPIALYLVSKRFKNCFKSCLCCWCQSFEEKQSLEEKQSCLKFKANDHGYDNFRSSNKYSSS
Protocol: Guinea pig cerebella were homogenized in a Potter-Elvejhem homogenizer and [lacuna] obtained by differential centrifugation at 1000×g for 10 min and repeated centrifugation of the supernatant at 20,000×g for 10 min.

[2] = target: T2, Cloned human ETA receptor (Homo sapiens, UniProt P25101); test: ETA receptor binding assay ([125I]-ET1, membranes of CHO cells); conditions: 25 pM [125I]-ET1, 25° C., 30 min
T2 construct: expressed in transfected cells; host or cells: CHO cells
T2 sequence (P25101 21-427): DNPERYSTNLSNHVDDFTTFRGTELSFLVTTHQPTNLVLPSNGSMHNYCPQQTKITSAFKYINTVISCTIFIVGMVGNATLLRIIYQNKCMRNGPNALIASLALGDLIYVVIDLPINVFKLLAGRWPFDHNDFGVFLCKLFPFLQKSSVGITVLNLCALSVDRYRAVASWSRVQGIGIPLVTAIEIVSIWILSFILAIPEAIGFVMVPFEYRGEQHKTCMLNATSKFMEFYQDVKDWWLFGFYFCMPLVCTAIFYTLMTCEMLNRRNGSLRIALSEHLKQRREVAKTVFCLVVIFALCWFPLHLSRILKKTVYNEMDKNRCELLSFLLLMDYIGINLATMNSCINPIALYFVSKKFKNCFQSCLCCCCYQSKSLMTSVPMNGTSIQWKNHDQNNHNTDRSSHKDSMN
Protocol: Cloned human ETA receptor-expressing CHO cells and guinea pig cerebellar membranes with >60% ETB compared with ETA receptors were used for binding studies.
The ETA receptor-expressing CHO cells were grown in F12 medium containing 10% fetal calf serum, 1% glutamine, 100 U/ml penicillin and 0.2% streptomycin (Gibco BRL, Gaithersburg, Md., USA).
After 48 h, the cells were washed with PBS and incubated with 0.05% trypsin-containing PBS for 5 min. Neutralization was then carried out with F12 medium, and the cells were collected by centrifugation at 300×g. To lyze lyse the cells, the pellet was briefly washed with lysis buffer (5 mM Tris-IICl, pII 7.4 with 10% glycerol) and then incubated at a concentration of 10^7 cells/ml of lysis buffer at 4° C. for 30 min. The membranes were centrifuged at 20,000×g for 10 min, and the pellet was stored in liquid nitrogen.
For the ETA and ETB receptor binding assay, the membranes were suspended in incubation buffer (50 mM Tris-HCl, pH 7.4 with 5 mM MnCl2, 40 μg/ml bacitracin and 0.2% BSA) at a concentration of 50 μg of protein per assay mixture and incubated with 25 pM [125I] [^125I]-ET1 (ETA receptor assay) or 25 pM [125I] [^125I]-RZ3 (ETB receptor assay) in the presence and absence of test substance at 25° C. The nonspecific binding was determined using 10^--7 10^−7 M ET1. After 30 min, the free and bound radioligand were separated by filtration through GF/B glass fiber filters (Whatman, England) on a Skatron cell collector (Skatron, Lier, Norway) and the filters were washed with ice-cold Tris-HCl buffer, pH 7.4 with 0.2% BSA. The radioactivity collected on the filters was quantified using a Packard 2200 CA liquid scintillation counter.

## COc1nc(OC(C(=O)OCc2ccccc2)C(OC)(c2ccccc2)c2ccccc2)nc2c1CCC2 (stereo not drawn) [Example 12, Benzyl 3-methoxy-2-(4-methoxy-6,7-dihydro-5H-cyclopentapyrimidin-2-yloxy)-3,3-diphenylpropionate]
other
  melting point: 143 to 147 °C

## COc1cc(OC)nc(OC(C(=O)O)C2(OC)c3ccccc3-c3ccccc32)n1 (stereo not drawn) [II-1]
other
  melting point: 96 to 98 °C
[1]
  Ki: 2300 nM
[2]
  Ki: 28 nM

## CCCOC(c1ccccc1)(c1ccccc1)C(Oc1nc(OC)cc(OC)n1)C(=O)O (stereo not drawn) [Compound I-12]
[1]
  Ki: 1700 nM

## COc1cc(OC)nc(OC(C(=O)O)C(OC(C)C)(c2ccccc2)c2ccccc2)n1 (stereo not drawn) [Compound I-5]
[1]
  Ki: 160 nM
[2]
  Ki: 12 nM

## COc1nc(OC(C(=O)O)C(OC)(c2ccccc2)c2ccccc2)nc2c1ccn2C (stereo not drawn) [I.89]
[1]
  Ki: 9300 nM
[2]
  Ki: 86 nM

## COc1cc(OC)nc(OC(C(=O)O)C(OCC2CC2)(c2ccccc2)c2ccccc2)n1 (stereo not drawn) [Compound I-26]
[1]
  Ki: 2000 nM
[2]
  Ki: 23 nM

## COc1nc(OC(C(=O)O)C(OC)(c2ccccc2)c2ccccc2)nc2c1CCO2 (stereo not drawn) [Compound I-87]
[2]
  Ki: 1 nM

## COc1cc(OC)nc(OC(C(=O)O)C2(OC)c3ccccc3CCc3ccccc32)n1 (stereo not drawn) [II-3]
[1]
  Ki: 7300 nM
[2]
  Ki: 107 nM

## CCOC(c1ccccc1)(c1ccccc1)C(Oc1nc(OC)cc(OC)n1)C(=O)O (stereo not drawn) [Compound I-4]
[1]
  Ki: 2500 nM

## COc1cc(OC)nc(OC(C(=O)O)C(OCc2ccccc2)(c2ccccc2)c2ccccc2)n1 (stereo not drawn) [Compound I-47]
[1]
  Ki: 1500 nM
[2]
  Ki: 150 nM

## COc1cc(OC)nc(OC(C(=O)O)C(SC)(c2ccccc2)c2ccccc2)n1 (stereo not drawn) [Compound I-107]
[1]
  Ki: 485 nM
[2]
  Ki: 3 nM

## COc1cc(C)nc(OC(C(=O)O)C(OC)(c2ccccc2)c2ccccc2)n1 (stereo not drawn) [Compound I-103]
[2]
  Ki: 0.4 nM

## COc1cc(OC)nc(OC(C(=O)O)C(OCCCC(C)C)(c2ccccc2)c2ccccc2)n1 (stereo not drawn) [Compound I-23]
[1]
  Ki: 1100 nM
[2]
  Ki: 209 nM

## COc1cc(OC)nc(OC(C(=O)O)C(OC)(c2ccccc2)c2ccccc2)n1 (stereo not drawn) [Compound I-2]
[1]
  Ki: 34 nM

## COc1cc(OC)nc(OC(C(=O)O)C(Oc2ccccc2)(c2ccccc2)c2ccccc2)n1 (stereo not drawn) [Compound I-29]
[1]
  Ki: 180 nM
[2]
  Ki: 86 nM

## COc1nc(OC(C(=O)O)C(OC)(c2ccccc2)c2ccccc2)nc2c1CCC2 (stereo not drawn) [Compound I-96]
[1]
  Ki: 56 nM
[2]
  Ki: 0.6 nM
